pEC50, pKi: −log10 of the molar value. Like-named read-outs stand apart in the source and are kept apart here.

The target of one test is NS3/4A protease gt 1b (Hepatitis C virus genotype 1b, UniProt P26663). As to the kind of experiment: HCV NS3 protease time-resolved fluorescence (TRF) assay, NS3/4A inhibitory activity (Ki), gt 1b. The note with it: genotype 1b NS3/4A; read-out: Enzyme Activity gt 1b Ki. The class given is biochemical. The method, then:
(§1) The HCV NS3 protease inhibitory activity of the present compounds may be tested using assays known in the art. One such assay is HCV NS3 protease time-resolved fluorescence (TRF) assay as described below and in International Patent Application Publication WO2006/102087. Other examples of such assays are described in e.g., International Patent Application Publication WO2005/046712. HCV NS3 protease inhibitors, such as those described herein have a Ki less than 50 μM, such as less than 10 μM, and less than 100 nM. Ki is determined by an NS3 protease assay. The assay is performed in a final volume of 100 μl in assay buffer containing 50 mM HEPES, pH 7.5, 150 mM NaCl, 15% glycerol, 0.15% TRITON X-100, 10 mM DTT, and 0.1% PEG 8000. NS3 protease is pre-incubated with various concentrations of inhibitors in DMSO for 30 minutes. The reaction is initiated by adding the TRF peptide substrate (final concentration 100 nM). NS3 mediated hydrolysis of the substrate is quenched after 1 hour at room temperature with 100 μl of 500 mM MES, pH 5.5. Product fluorescence is detected using either a VICTOR V2 or FUSION fluorophotometer (Perkin Elmer Life and Analytical Sciences) with excitation at 340 nm and emission at 615 nm with a 400 μs delay. Testing concentrations of different enzyme forms are selected to result in a signal to background ratio (S/B) of 10-30. IC50 values are derived using a standard four-parameter fit to the data. Ki values are derived from IC50 values using the following formula,
(§2) IC50=Ki(1+[S]/KM), Eqn (1),
(§3) where [S] is the concentration of substrate peptide in the reaction and KM is the Michaelis constant. See P. Gallinari et al., 38 BIOCHEM. 5620-32 (1999); P. Gallinari et al., 72 J. VIROL. 6758-69 (1998); M. Taliani et al., 240 ANAL. BIOCHEM. 60-67 (1996).
(§4) One such assay is HCV NS3 protease time-resolved fluorescence (TRF) assay as described below and in Mao et al., Anal Biochem. 373:1-8, 2008 and International Patent Application Publication WO 2006/102087. A NS3 protease assay can be performed, for example, in a final volume of 100 μl assay buffer containing 50 mM HEPES, pH 7.5, 150 mM NaCl, 15% glycerol, 0.15% TRITON X-100, 10 mM DTT, and 0.1% PEG 8000. NS3 and NS4A protease is pre-incubated with various concentrations of inhibitors in DMSO for 30 minutes. The reaction is initiated by adding the TRF peptide substrate (final concentration 100 nM). NS3 mediated hydrolysis of the substrate is quenched after 1 hour at room temperature with 100 μl of 500 mM MES, pH 5.5. Product fluorescence is detected using either a VICTOR V2 or FUSION fluorophotometer (Perkin Elmer Life and Analytical Sciences) with excitation at 340 nm and emission at 615 nm with a 400 μs delay. Testing concentrations of different enzyme forms are selected to result in a signal to background ratio (S/B) of 10-30. IC50 values are derived using a standard four-parameter fit to the data. Ki values are derived from IC50 values using the following formula,
(§5) where [S] is the concentration of substrate peptide in the reaction and KM is the Michaelis constant. See P. Gallinari et al., 38 BIOCHEM. 5620-32 (1999); P. Gallinari et al., 72 J. VIROL. 6758-69 (1998); M. Taliani et al., 240 ANAL. BIOCHEM. 60-67 (1996); Mao et al., Analytical Biochemistry 373: 1-8, 2008. Measuring Compound Inhibitory Potency (Replicon EC50 (nM))

The target of test [1] is NS3/4A protease gt 1b A156V (Hepatitis C virus genotype 1b, UniProt P26663, A1182V). As to the kind of experiment: HCV NS3 protease time-resolved fluorescence (TRF) assay, NS3/4A inhibitory activity (Ki), gt 1b A156V mutant. The class given is biochemical, hepatitis C virus (HCV). On the procedure: as §1, §2, §3, §4, §5
Another test has as its target NS3/4A protease gt 3a (Hepatitis C virus genotype 3a, UniProt Q81258). As to the kind of experiment: HCV NS3 protease time-resolved fluorescence (TRF) assay, NS3/4A inhibitory activity (Ki), gt 3a. The conditions noted are these: genotype 3a NS3/4A; read-out: Enzyme Activity gt 3a Ki. The test is classed as biochemical. The method, then:
as §1, §2, §3, §4, §5

For the next test, the system named is gt 1b Replicon. As to the kind of experiment: HCV replicon assay, compound inhibitory potency (Replicon EC50). The class given is cell-based. The conditions noted are these: Hepatitis C virus, GT1B. The method, then:
Measurement of inhibition by compounds was performed using the HCV replicon system. Several different replicons encoding different HCV genotypes or mutations were used. In addition, potency measurements were made using different formats of the replicon assay, including different ways of measurements and different plating formats. See Jan M. Vrolijk et al., A replicons-based bioassay for the measurement of interferons in patients with chronic hepatitis C, 110 J. VIROLOGICAL METHODS 201 (2003); Steven S. Carroll et al., Inhibition of Hepatitis C Virus RNA Replication by 2′-Modified Nucleoside Analogs, 278(14) J. BIOLOGICAL CHEMISTRY 11979 (2003). However, the underlying principles are common to all of these determinations, and are outlined below.
Stable neomycin phosphotransferase encoding replicon-harboring cell lines were used, so all cell lines were maintained under G418 selection prior to the assay. In some cases the cell lines encoded a luciferase:Neor fusion and could be assayed either directly by determination of RNA copy number, or indirectly through measurement of the luciferase activity.
To initiate an assay, replicon cells were plated in the presence of a dilution series of test compound in the absence of G418. Typically, the assays were performed in a 96-well plate format for manual operation, or a 384 well plate in an automated assay. Replicon cells and compound were incubated for 24-48 hours, depending on the assay. At the end of the assay, cells are washed free of media and compound and then lysed. For direct quantitation, RNA levels were measured by ^32P-probe hybridization and protection, or in a TAQMAN based assay and normalized to cellular cyclophilin A RNA levels. In some cases, luciferase activity was measured using a conventional luciferase assay. In all cases EC50 determinations were calculated as a percent of a DMSO control by fitting the data to a four parameter fit function.
In general terms: In antiviral work, replicon cells carry a viral genome segment that copies itself.

Where [2] appears, read: 10% Fetal Bovine Serum, read-out: gt 1b Replicon EC50 10% FBS.
The mark [3] stands for this setting: 50% Normal Human Serum, read-out: gt 1b Replicon EC50 50% NHS.

A word on the pKi: it is −log10 of the Ki, conventionally taken in molar units. Usually pEC50 stands for −log10 of the EC50, conventionally taken in molar units. Turning to `C=C[C@@H]1C[C@]1(NC(=O)[C@@H]1C[C@@H]2CN1C(=O)[C@H](C(C)(C)C)NC(=O)O[C@]1(C)C[C@H]1CCCCCc1nc3ccccc3nc1O2)C(=O)NS(=O)(=O)C1CC1` [Example I-8, (1aR,5S,8S,10R,22aR)-5-tert-butyl-N-{(1R,2S)-1-[(cyclopropylsulfonyl)carbamoyl]-2-ethenylcyclopropyl}-1a-methyl-3,6-dioxo-1,1a,3,4,5,6,9,10,18,19, 20,21,22,22a-tetra decahydro-8H-7,10-methanocyclopropa[18, 19][1,10,3,6]dioxatriaza cyclononadecino[11,12-b]quinoxaline-8-carboxamide], the pKi at NS3/4A protease gt 1b was 10.70; in test [1], 7.94; on NS3/4A protease gt 3a, 9.30. The pEC50 in the test on gt 1b Replicon (setting [2]) was 8.70; in the test with gt 1b Replicon (setting [3]) it was 8.22.

For the molecule `C=C[C@@H]1C[C@]1(NC(=O)[C@@H]1C[C@@H]2CN1C(=O)[C@H](C(C)(C)C)NC(=O)O[C@]1(C)C[C@H]1CCCCCc1nc3ccc(OC)cc3cc1O2)C(=O)NS(=O)(=O)C1CC1` [Example I-10, (1aR,5S,8S,10R,22aR)-5-tert-butyl-N-{(1R,2S)-1-[(cyclopropylsulfonyl)carbamoyl]-2-ethenylcyclopropyl}-14-methoxy-1a-methyl-3,6-dioxo-1,1a,3,4,5,6,9,10,18,19,20,21,22, 22a-tetradecahydro-8H-7,10-methanocyclo propa[18,19][1,10,3,6] dioxadiazacyclonona decino[12,11-b] quinoline-8-carboxamide], the pKi at NS3/4A protease gt 1b is 10.70; in test [1] it was 8.38; on NS3/4A protease gt 3a, 9.70. Further, the negative-log EC50 (pEC50) in the test on gt 1b Replicon (setting [2]) was 8.40; in the test with gt 1b Replicon (setting [3]), 8.00.

In the case of `C=C[C@@H]1C[C@]1(NC(=O)[C@@H]1C[C@@H]2CN1C(=O)[C@H](C1CCCC1)NC(=O)O[C@]1(C)C[C@H]1CCC/C=C/c1cccc3c1CN(C3)C(=O)O2)C(=O)NS(=O)(=O)C1CC1` [Example I-12, (1aR,5S,8S,10R,19E,23aR)-5-cyclopentyl-N-{(1R,2S)-1-[(cyclopropylsulfonyl)carbamoyl]-2-ethenylcyclopropyl}-1a-methyl-3,6,12-trioxo-1a,3,4,5,6,9,10, 14,21,22,23,23a-dodecahydro-1H,8H-7,10:13,15-dimethano cyclopropa[n][4,13,2,8, 11]benzodioxatriaza cyclodocosine-8(12H)-carboxamide], the figures for the pKi (on NS3/4A protease gt 1b; in test [1]; on NS3/4A protease gt 3a) were 10.70, 8.85 and 7.92, respectively. Besides, the pEC50 in the test on gt 1b Replicon (setting [2]) is 8.30; in the test on gt 1b Replicon (setting [3]) it was 7.72.

Take `C=C[C@@H]1C[C@]1(NC(=O)[C@@H]1C[C@@H]2CN1C(=O)[C@H](C1CCCC1)NC(=O)O[C@]1(C)C[C@H]1CCCCCc1cccc3c1CN(C3)C(=O)O2)C(=O)NS(=O)(=O)C1CC1` [Example I-13, (1aR,5S,8S,10R,23aR)-5-cyclopentyl-N-{(1R,2S)-1-[(cyclopropylsulfonyl)carbamoyl]-2-ethenylcyclopropyl}-1a-methyl-3,6,12-trioxo-1a,3,4,5,6,9,10, 14,19,20,21,22,23,23a-tetradecahydro-1H,8H-7,10:13,15-dimethano cyclopropa[n][4,13,2,8, 11]benzodioxatriaza cyclodocosine-8(12H)-carboxamide]: the negative-log Ki (pKi) was 10.70 at NS3/4A protease gt 1b, 9.40 in test [1] and 7.48 on NS3/4A protease gt 3a. For the same molecule, the pEC50 in the test with gt 1b Replicon (setting [2]) is 8.40; in the test with gt 1b Replicon (setting [3]), 7.80.

As to `C=C[C@@H]1C[C@]1(NC(=O)[C@@H]1C[C@@H]2CN1C(=O)[C@H](C1CCCC1)NC(=O)O[C@]1(C)CCC[C@H]1CCCCCc1c(nc3ccccc3c1O)O2)C(=O)NS(=O)(=O)C1CC1` [Example I-16, (3aR,7S,10S,12R,24aR)-7-cyclopentyl-N-{(1R,2S)-1-[(cyclopropylsulfonyl)carbamoyl]-2-ethenylcyclopropyl}-19-hydroxy-3a-methyl-5,8-dioxo-1,2,3,3a,5,6,7,8,11,12,20,21,22,23,24, 24a-hexadecahydro-10H-9,12-methano cyclopenta[18,19][1,10,3,6]dioxadiazacyclo nonadecino[11,12-b]quinoline-10-carboxamide], the pKi was 10.70 on NS3/4A protease gt 1b, 8.62 in test [1] and 8.85 at NS3/4A protease gt 3a. Also, the pEC50 was 8.05 in the test with gt 1b Replicon (setting [2]) and 7.57 in the test with gt 1b Replicon (setting [3]).

Take `CC[C@@H]1C[C@]1(NC(=O)[C@@H]1C[C@@H]2CN1C(=O)[C@H](C1CCCC1)NC(=O)O[C@]1(C)CCC[C@H]1CCCCCc1c(nc3ccccc3c1O)O2)C(=O)NS(=O)(=O)C1CC1` [Example I-18, (3aR,7S,10S,12R,24aR)-7-cyclopentyl-N-{(1R,2R)-1-[(cyclopropylsulfonyl)carbamoyl]-2-ethylcyclopropyl}-19-hydroxy-3a-methyl-5,8-dioxo-1,2,3,3a,5,6,7,8,11,12,20,21,22,23,24, 24a-hexadecahydro-10H-9,12-methano cyclopenta[18,19][1,10,3,6]dioxadiazacyclo nonadecino[11,12-b]quinoline-10-carboxamide]: the pKi was 10.15 on NS3/4A protease gt 1b, 7.37 in test [1] and 8.04 at NS3/4A protease gt 3a. In addition, the pEC50 with gt 1b Replicon (setting [2]) is 7.52; in the test with gt 1b Replicon (setting [3]) it was 7.46.

The values are drawn from patent US20130178413A1, “HCV NS3 PROTEASE INHIBITORS” (priority 2010, published 2013).
